Measurements from patent US9273058B2 (BRISTOL-MYERS SQUIBB COMPANY, priority 2013, dated 2016).
pIC50: −log10 of the molar value. Where two headings read alike, the source gives them in different places.

Tests used:
[1] = molecular target: CK1δ (Homo sapiens, UniProt P48730); assay: CK1δ kinase assay (Caliper LabChip electrophoretic separation of fluoresceinated peptide substrate and product); format: biochemical; settings: 200 pM CK1δ, 50 μM ATP, 1.5 μM peptide, 22 hours at room temperature
Summary of the method: (§1)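 Eleven-concentration compound series in kinase reactions run for 22 hours at room temperature. Terminated with EDTA, with product conversion read by electrophoretic separation. Non-linear regression gave IC50.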

[2] = molecular target: CK1ε (Homo sapiens, UniProt P49674); assay: CK1ε kinase assay (Caliper LabChip electrophoretic separation of fluoresceinated peptide substrate and product); format: biochemical; settings: 200 pM CK1ε, 50 μM ATP, 1.5 μM peptide, 22 hours at room temperature
CK1ε, sequence (P49674 whole entry): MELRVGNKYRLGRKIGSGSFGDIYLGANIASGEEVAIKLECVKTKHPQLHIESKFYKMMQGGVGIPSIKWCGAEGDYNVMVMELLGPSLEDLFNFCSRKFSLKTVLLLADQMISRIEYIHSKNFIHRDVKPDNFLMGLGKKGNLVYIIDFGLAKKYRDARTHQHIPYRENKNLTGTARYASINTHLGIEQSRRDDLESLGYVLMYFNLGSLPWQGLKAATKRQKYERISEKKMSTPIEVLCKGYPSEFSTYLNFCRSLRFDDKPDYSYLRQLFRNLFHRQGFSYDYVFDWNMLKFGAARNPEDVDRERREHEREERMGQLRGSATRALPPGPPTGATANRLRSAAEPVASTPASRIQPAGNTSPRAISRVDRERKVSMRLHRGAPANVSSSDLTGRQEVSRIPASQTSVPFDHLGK
Summary of the method: as §1

CK1δ, sequence (P48730 whole entry): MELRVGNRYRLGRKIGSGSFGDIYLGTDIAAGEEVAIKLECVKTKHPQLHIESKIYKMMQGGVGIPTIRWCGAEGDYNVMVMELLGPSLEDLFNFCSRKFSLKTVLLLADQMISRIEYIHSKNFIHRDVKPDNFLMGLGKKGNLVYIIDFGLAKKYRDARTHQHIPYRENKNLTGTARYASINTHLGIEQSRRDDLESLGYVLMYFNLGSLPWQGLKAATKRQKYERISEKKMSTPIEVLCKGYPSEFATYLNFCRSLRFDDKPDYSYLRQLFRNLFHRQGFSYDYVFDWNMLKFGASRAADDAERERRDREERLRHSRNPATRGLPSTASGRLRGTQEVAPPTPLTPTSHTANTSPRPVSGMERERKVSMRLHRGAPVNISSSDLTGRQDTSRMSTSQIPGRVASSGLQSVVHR

| SMILES | pIC50 ([1]; read-out: CK1δ IC50 range) | pIC50 ([2]; read-out: CK1ε IC50 range) | pIC50 ([1]; read-out: CK1δ) | pIC50 ([2]; read-out: CK1ε) |
| --- | --- | --- | --- | --- |
| NC(=O)c1c(-c2ccc(Cl)c(Cl)c2)nn2c1CN(C(=O)N[C@H]1C[C@@H](OC(F)(F)F)C1)CC2 [Compound 263, 2-(3,4-Dichlorophenyl)-N^5-((1r,3r)-3-(trifluoromethoxy)cyclobutyl)-6,7-dihydropyrazolo[1,5-a] pyrazine-3,5(4H)-dicarboxamide] | 8.00 to 11.00 | 8.00 to 11.00 |  |  |
| CC1CC(NC(=O)N2CCn3nc(-c4ccc(F)c(Cl)c4)c(C(N)=O)c3C2)C1 (single isomer, unassigned) [Compound 247, 2-(3-Chloro-4-fluorophenyl)-N^5-(3-methylcyclobutyl)-6,7-dihydropyrazolo[1,5-a]pyrazine-3,5(4H)-dicarboxamide] | 8.00 to 11.00 | 8.00 to 11.00 |  |  |
| CC(C)(NC(=O)N1CCn2nc(-c3ccc(F)c(Cl)c3)c(C(N)=O)c2C1)C1CC(F)(F)C1 [Compound 226, 2-(3-Chloro-4-fluorophenyl)-N^5-(2-(3,3-difluorocyclobutyl)propan-2-yl)-6,7-dihydropyrazolo[1,5-a]pyrazine-3,5(4H)-dicarboxamide] | 8.00 to 11.00 | 8.00 to 11.00 |  |  |
| CC(C)(C)NC(=O)N1CCn2nc(-c3ccc(F)cc3)c(C(N)=O)c2C1 [Compound 1] | 7.00 to 8.00 | 7.00 to 8.00 | 7.56 | 7.04 |
| NC(=O)c1c(-c2ccc(F)c(Cl)c2)nn2c1CN(C(=O)NC1(C(F)F)CCC1)CC2 [Compound 235, 2-(3-Chloro-4-fluorophenyl)-N^5-(1-(difluoromethyl)cyclobutyl)-6,7-dihydro pyrazolo[1,5-a]pyrazine-3,5(4H)-dicarboxamide] | 8.00 to 11.00 | 8.00 to 11.00 |  |  |
| NC(=O)c1c(-c2ccc(F)c(Cl)c2)nn2c1CN(C(=O)N[C@H]1C[C@@H](c3ccc(F)cc3)C1)CC2 [Compound 276, 2-(3-Chloro-4-fluorophenyl)-N^5-((1s,3s)-3-(4-fluorophenyl)cyclobutyl)-6,7-dihydropyrazolo[1,5-a]pyrazine-3,5(4H)-dicarboxamide] | 8.00 to 11.00 | 8.00 to 11.00 |  |  |
| CC(C)(C)NC(=O)N1CCn2nc(-c3cccnc3)c(C(N)=O)c2C1 [Compound 111, N^5-(tert-Butyl)-2-(pyridin-3-yl)-6,7-dihydropyrazolo[1,5-a]pyrazine-3,5(4H)-dicarboxamide] | 5.70 to 7.00 | 5.70 to 7.00 |  |  |
| CC(C)(NC(=O)N1CCn2nc(-c3cccc(Cl)c3)c(C(N)=O)c2C1)C(F)F [Compound 172, 2-(3-Chlorophenyl)-N^5-(1,1-difluoro-2-methylpropan-2-yl)-6,7-dihydropyrazolo[1,5-a] pyrazine-3,5(4H)-dicarboxamide] | 8.00 to 11.00 | 8.00 to 11.00 |  |  |
| NC(=O)c1c(-c2cccc(Cl)c2)nn2c1CN(C(=O)NC1(c3cccnc3)CC(F)(F)C1)CC2 [Compound 312, 2-(3-Chlorophenyl)-N^5-(3,3-difluoro-1-(pyridin-3-yl)cyclobutyl)-6,7-dihydropyrazolo[1,5-a]pyrazine-3,5(4H)-dicarboxamide] | 8.00 to 11.00 | 8.00 to 11.00 |  |  |
| CC1(NC(=O)N2CCn3nc(-c4ccc(F)c(Cl)c4)c(C(N)=O)c3C2)CC2(CC2)C1 [Compound 317, 2-(3-Chloro-4-fluorophenyl)-N^5-(5-methylspiro[2.3]hexan-5-yl)-6,7-dihydropyrazolo[1,5-a]pyrazine-3,5(4H)-dicarboxamide] | 8.00 to 11.00 | 8.00 to 11.00 |  |  |
| NC(=O)c1c(-c2ccc(Cl)c(Cl)c2)nn2c1CN(C(=O)NC1(CF)CC(F)(F)C1)CC2 [compound 303] | 8.00 to 11.00 | 8.00 to 11.00 |  |  |
| CC1(NC(=O)N2Cc3c(C(N)=O)c(-c4ccc(F)c(Cl)c4)nn3CC2C2CC2)CC(F)(F)C1 (single isomer, unassigned) [Compound 348, 2-(3-Chloro-4-fluorophenyl)-6-cyclopropyl-N^5-(3,3-difluoro-1-methylcyclobutyl)-6,7-dihydropyrazolo[1,5-a]pyrazine-3,5(4H)-dicarboxamide] | 5.70 to 7.00 | 7.00 to 8.00 |  |  |
| CC(C)(NC(=O)N1CCn2nc(-c3ccc(F)c(Cl)c3)c(C(N)=O)c2C1)c1ccc(C#N)cc1 [Compound 187, 2-(3-Chloro-4-fluorophenyl)-N^5-(2-(4-cyanophenyl)propan-2-yl)-6,7-dihydropyrazolo [1,5-a]pyrazine-3,5(4H)-dicarboxamide] | 8.00 to 11.00 | 8.00 to 11.00 |  |  |
| CS[C@H]1C[C@@H](NC(=O)N2CCn3nc(-c4ccc(Cl)c(Cl)c4)c(C(N)=O)c3C2)C1 [Compound 271, 2-(3,4-Dichlorophenyl)-N^5-((1s,3s)-3-(methylthio)cyclobutyl)-6,7-dihydropyrazolo[1,5-a] pyrazine-3,5(4H)-dicarboxamide] | 8.00 to 11.00 | 8.00 to 11.00 |  |  |
| CS[C@H]1C[C@@H](NC(=O)N2CCn3nc(-c4ccc(F)c(Cl)c4)c(C(N)=O)c3C2)C1 [Compound 269, 2-(3-Chloro-4-fluorophenyl)-N^5-((1s,3s)-3-(methylthio)cyclobutyl)-6,7-dihydropyrazolo[1,5-a]pyrazine-3,5(4H)-dicarboxamide] | 8.00 to 11.00 | 8.00 to 11.00 |  |  |
| CC1(NC(=O)N2CCn3nc(-c4ccc(Cl)c(Cl)c4)c(C(N)=O)c3C2)CC2(C1)CC2(F)F (single isomer, unassigned) [Compound 329, 2-(3,4-Dichlorophenyl)-N^5-(1,1-difluoro-5-methylspiro[2.3]hexan-5-yl)-6,7-dihydropyrazolo[1,5-a]pyrazine-3,5(4H)-dicarboxamide] | 8.00 to 11.00 | 8.00 to 11.00 |  |  |
| CC1Cn2nc(-c3ccc(F)c(Cl)c3)c(C(N)=O)c2CN1C(=O)NC(C)(C)C (single isomer, unassigned) [Compound 341, N^5-(tert-Butyl)-2-(3-chloro-4-fluorophenyl)-6-methyl-6,7-dihydropyrazolo[1,5-a]pyrazine-3,5(4H)-dicarboxamide] | 7.00 to 8.00 | 8.00 to 11.00 |  |  |
| CC(C)(C)NC(=O)N1CCn2nc(-c3cccc(Cl)c3)c(C(N)=O)c2C1 [Compound 108, N^5-(tert-Butyl)-2-(3-chlorophenyl)-6,7-dihydropyrazolo[1,5-a] pyrazine-3,5(4H)-dicarboxamide] | 8.00 to 11.00 | 8.00 to 11.00 | 9.05 | 8.62 |
| CC(C)(C)NC(=O)N1CCn2nc(-c3ccc(F)c(Cl)c3)c(C(N)=O)c2C1 [Compound 104] | 8.00 to 11.00 | 8.00 to 11.00 | 9.15 | 8.89 |

Next, values leading:

| pIC50 ([1]; read-out: CK1δ IC50 range) | pIC50 ([2]; read-out: CK1ε IC50 range) | pIC50 ([1]; read-out: CK1δ) | pIC50 ([2]; read-out: CK1ε) | SMILES |
| --- | --- | --- | --- | --- |
| 8.00 to 11.00 | 8.00 to 11.00 |  |  | CC(C)(C)NC(=O)N1Cc2c(C(N)=O)c(-c3ccc(F)c(Cl)c3)nn2C(C(C)(C)O)C1 (stereo not shown) [Compound A18, N^5-(tert-Butyl)-2-(3-chloro-4-fluorophenyl)-7-(2-hydroxypropan-2-yl)-6,7-dihydropyrazolo[1,5-a]pyrazine-3,5(4H)-dicarboxamide] |
| 8.00 to 11.00 | 8.00 to 11.00 |  |  | CC(C)(CO)NC(=O)N1CCn2nc(-c3cccc(Cl)c3)c(C(N)=O)c2C1 [Compound A46, 2-(3-Chlorophenyl)-N^5-(1-hydroxy-2-methylpropan-2-yl)-6,7-dihydropyrazolo[1,5-a] pyrazine-3,5(4H)-dicarboxamide] |
| 8.00 to 11.00 | 8.00 to 11.00 |  |  | NC(=O)c1c(-c2ccc(F)c(Cl)c2)nn2c1CN(C(=O)NC13CCC(CF)(CC1)CC3)CC2 [Compound A56, 2-(3-Chloro-4-fluorophenyl)-N^5-(4-(fluoromethyl)bicyclo[2.2.2]octan-1-yl)-6,7-dihydropyrazolo[1,5-a]pyrazine-3,5(4H)-dicarboxamide] |
| 8.00 to 11.00 | 8.00 to 11.00 |  |  | NC(=O)c1c(-c2cccc(Cl)c2)nn2c1CN(C(=O)NC13CCCC(CCC1)C3)CC2 [Compound A84, N^5-((1r,5r)-Bicyclo[3.3.1]nonan-1-yl)-2-(3-chlorophenyl)-6,7-dihydropyrazolo[1,5-a]pyrazine-3,5(4H)-dicarboxamide] |
| 8.00 to 11.00 | 8.00 to 11.00 |  |  | COC12CCC(NC(=O)N3CCn4nc(-c5cccc(Cl)c5)c(C(N)=O)c4C3)(CC1)C(=O)C2 [Compound A76, 2-(3-Chlorophenyl)-N^5-(4-methoxy-2-oxobicyclo[2.2.2]octan-1-yl)-6,7-dihydropyrazolo[1,5-a]pyrazine-3,5(4H)-dicarboxamide] |
| 8.00 to 11.00 | 8.00 to 11.00 |  |  | CC12CC3(C)CC(C)(C1)CC(NC(=O)N1CCn4nc(-c5ccc(Cl)c(Cl)c5)c(C(N)=O)c4C1)(C2)C3 [Compound A91, 2-(3,4-Dichlorophenyl)-N^5-((3s,5s,7s)-3,5,7-trimethyladamantan-1-yl)-6,7-dihydropyrazolo[1,5-a]pyrazine-3,5(4H)-dicarboxamide] |
| 8.00 to 11.00 | 8.00 to 11.00 |  |  | CC1CN(C(=O)NC2CC(F)(F)C2)Cc2c(C(N)=O)c(-c3cccc(Cl)c3)nn21 (single isomer, unassigned) [Compound A110, 2-(3-Chlorophenyl)-N^5-(3,3-difluorocyclobutyl)-7-methyl-6,7-dihydropyrazolo[1,5-a]pyrazine-3,5(4H)-dicarboxamide] |
| 5.70 to 7.00 | 5.70 to 7.00 |  |  | CC(C)(C)NC(=O)N1Cc2c(C(N)=O)c(-c3cccc(F)c3)nn2C(CF)C1 (single isomer, unassigned) [Compound A106, N^5-(tert-Butyl)-7-(fluoromethyl)-2-(3-fluorophenyl)-6,7-dihydropyrazolo[1,5-a]pyrazine-3,5(4H)-dicarboxamide] |
| 8.00 to 11.00 | 8.00 to 11.00 | 9.52 | 10.00 | NC(=O)c1c(-c2ccc(Cl)c(Cl)c2)nn2c1CN(C(=O)NC1CC(F)(F)C1)C[C@@H]2CF [Compound A30, (R)-2-(3,4-dichlorophenyl)-N^5-(3,3-difluorocyclobutyl)-7-(fluoromethyl)-6,7-dihydropyrazolo[1,5-a] pyrazine-3,5(4H)-dicarboxamide] |
